Reference: patent US20030198692A1, “Microbial inhibitory compositions” (priority 2000, published 2003)

Columns and labels:
Assay type in all cases: cell-based
Escherichia coli = assay: Growth of Escherichia coli in the presence of polymyxin B and furanones; conditions: furanone 10 μg/ml with polymyxin B 0.3-1 μg/ml
Description: Growth of Gram negative bacteria is not generally affected by furanone compounds alone. […] In order to explore this concept, the antibiotic polymyxin B was included in the initial round of experiments (see FIGS. 2, 3 and 4) involving the bacteria Escherichia coli, Burkholdera cepacia and Pseudomonas aeruginosa. […] Different furanone compounds under test were applied at 10 μg/ml (concentration of stock solution of furanone compound or mixture of compounds was 2 mg/ml) and polymyxin B was employed at concentrations which ranged from 0.3-1 μg/ml (stock solution was 10 mg/ml).

Candida albicans = assay: Growth of Candida albicans in the presence of furanone 57 with or without EDTA
Description: The yeast, Candida albicans, was tested in the presence of furanone 57 at 250 ng/ml. […] In combination with 0.01% EDTA the growth of the cells was inhibited for at least 32 hrs.

Pseudomonas aeruginosa = assay: Growth of Pseudomonas aeruginosa in the presence of furanones, alone or with a cell-permeabilising agent; conditions: for prevention of growth of P. aeruginosa (ranking): furanone 10 μg/ml with EDTA 0.02%
Description: Ten furanones (compounds 2, 3, 19, 30, 45, 55, 56, 24/25, 26/27 and 33/34) (see Table 2) were tested against growth of Gram negative bacteria in a combination treatment using a cell permeabilising agent (Polymyxin B and EDTA).
Different furanone compounds under test were applied at 10 μg/ml (concentration of stock solution of furanone compound or mixture of compounds was 2 mg/ml) and polymyxin B was employed at concentrations which ranged from 0.3-1 μg/ml (stock solution was 10 mg/ml).
In addition, EDTA which also affects the permeability of the cell membrane was tested against growth of P. aeruginosa in combination with the different furanones. EDTA was added at a concentration of 0.02%. […] It is possible that they differently allow for different furanones to penetrate the cell membrane.
Growth of Pseudomonas aeruginosa in the presence of citric acid, toluene, Tween 80 and two different quaternary ammonium compounds was further investigated. The tested furanones was furanone 30 and 34 at 10 μg/ml (concentration of stock solution of furanone compound was 10 mg/ml). The used cell-permeability agents were employed at concentrations which ranged from 0.35-0.001%.

Corynebacterium jeikeium = assay: Growth of Corynebacterium jeikeium in the presence of furanone 2 and EDTA; conditions: compound 100 μg/ml in combination with EDTA 0.02%
Description: Moreover, the growth of the Gram-positive bacteria, Corynebacterium jeikeium, was inhibited by compound 2 (100 μg/ml) in combination with EDTA (0.02%). The lagphase of growth was prolonged for 20 hr.

[1] = furanone 10 μg/ml in combination with citric acid

CCCC(F)C1=C(Br)/C(=C/Br)OC1=O (centres unmarked) [Compound 45]
time period of inhibition of growth of E. coli (Escherichia coli): 8 h

CCCCCC(F)C1=C(Br)/C(=C/Br)OC1=O (centres unmarked) [Compound 57]
duration of inhibition of growth of C. albicans cells (Candida albicans; compound 250 ng/ml alone): 24 h | duration of inhibition of growth of C. albicans cells (Candida albicans; compound 250 ng/ml in combination with 0.01% EDTA): at least 32 hrs

O=C1C=C/C(=C/Br)O1 [Compound 56]
prevention of growth of P. aeruginosa (ranking) (Pseudomonas aeruginosa): most effective compounds in preventing growth

CCCCCC(Br)C1=CC(=C(Br)Br)OC1=O (centres unmarked) [Compound 34]
prolongation of lag phase of growth of P. aeruginosa (Pseudomonas aeruginosa; [1]): approximately 3 hours

CCCCC1=C(Br)C(=C(Br)Br)OC1=O [Compound 2]
time period of inhibition of growth of E. coli (Escherichia coli): 8 h | growth of Corynebacterium jeikeium (Corynebacterium jeikeium): inhibited | prolongation of lag phase of growth of Corynebacterium jeikeium (Corynebacterium jeikeium): 20 h

O=C1C=C(Br)/C(=C/Br)O1 [Compound 30]
prolongation of lag phase of growth of P. aeruginosa (in words) (Pseudomonas aeruginosa; [1]): also prolonged the lag phase of growth however not as strongly as compound 34 | prevention of growth of P. aeruginosa (ranking) (Pseudomonas aeruginosa): most effective compounds in preventing growth | growth of P. aeruginosa (Pseudomonas aeruginosa; furanone 10 μg/ml with Tween 80): slight growth inhibition | growth of P. aeruginosa (Pseudomonas aeruginosa; furanone 10 μg/ml with didecyldimethylammonium bromide): inhibited the growth of P. aeruginosa | activity against P. aeruginosa (ranking) (Pseudomonas aeruginosa; furanone 10 μg/ml with polymyxin B 0.3-1 μg/ml): most active compound | growth of P. aeruginosa (Pseudomonas aeruginosa; furanone 10 μg/ml with tetrabutylammoniumhydrogen sulfate (slightly more active of the two quaternary ammonium compounds)): inhibited the growth of P. aeruginosa
